# Data published in ChEMBL document CHEMBL6087488, “Development of the First-in-Class FEM1B-Recruiting Histone Deacetylase Degraders” (J Med Chem, 2025).
# Active and inactive are the calls of the source. The calls are words filed in the database; no cut-off is given here.
# Columns and labels:
# [1] = target: T1, Protein fem-1 homolog B/Histone deacetylase 1 (Homo sapiens, UniProt Q13547+Q9UK73); assay: PROTAC activity at FEM1B/HDAC1 in human MM1.S cell lysate assessed as initial degradation at 1 uM measured after 24 hrs by Western immunoassay; type: subcellular
# [2] = target: T1, Protein fem-1 homolog B/Histone deacetylase 1; assay: PROTAC activity at FEM1B/HDAC1 in human MM.1S cell lysate assessed as maximal initial degradation at measured after 24 hrs by Western immunoassay relative to control; type: subcellular; conditions: MM1.S
# [3] = target: T1, Protein fem-1 homolog B/Histone deacetylase 1; assay: PROTAC activity at FEM1B/HDAC1 in human MM1.S cell lysate assessed as protein degradation at 1 uM measured after 24 hrs by Western immunoassay; type: subcellular
# [4] = target: Protein fem-1 homolog B/Histone deacetylase 2 (Homo sapiens) (UniProt Q92769+Q9UK73); assay: PROTAC activity at FEM1B/HDAC2 in human MM1.S cell lysate assessed as protein degradation at 1 uM measured after 24 hrs by Western immunoassay; type: subcellular
# [5] = target: Protein fem-1 homolog B/Histone deacetylase 3 (Homo sapiens) (UniProt O15379+Q9UK73); assay: PROTAC activity at FEM1B/HDAC3 in human MM1.S cell lysate assessed as protein degradation at 1 uM measured after 24 hrs by Western immunoassay; type: subcellular
# [6] = target: Protein fem-1 homolog B/Protein deacetylase HDAC6 (Homo sapiens) (UniProt Q9UBN7+Q9UK73); assay: PROTAC activity at FEM1B/HDAC6 in human MM1.S cell lysate assessed as protein degradation at 1 uM measured after 24 hrs by Western immunoassay; type: subcellular
# [7] = target: Protein fem-1 homolog B/Histone deacetylase 4 (Homo sapiens) (UniProt P56524+Q9UK73); assay: PROTAC activity at FEM1B/HDAC4 in human MM1.S cell lysate assessed as protein degradation at 1 uM measured after 24 hrs by Western immunoassay; type: subcellular
# [8] = target: Protein fem-1 homolog B/Histone deacetylase 8 (Homo sapiens) (UniProt Q9BY41+Q9UK73); assay: PROTAC activity at FEM1B/HDAC8 in human MM1.S cell lysate assessed as protein degradation at 1 uM measured after 24 hrs by Western immunoassay; type: subcellular
# [9] = target: T1, Protein fem-1 homolog B/Histone deacetylase 1; assay: PROTAC activity at FEM1B/HDAC1 in human MM1.S cell lysate assessed as neddylation-dependent protein degradation at 1 uM in presence of vorinostat measured after 24 hrs by Western immunoassay; type: subcellular
# [10] = target: T1, Protein fem-1 homolog B/Histone deacetylase 1; assay: PROTAC activity at FEM1B/HDAC1 in human MM1.S cell lysate assessed as neddylation-dependent protein degradation at 1 uM in presence of MLN4924 measured after 24 hrs by Western immunoassay; type: subcellular
# [11] = target: T1, Protein fem-1 homolog B/Histone deacetylase 1; assay: PROTAC activity at FEM1B/HDAC1 in human MV4-11 cell lysate assessed as protein degradation at 10 uM measured after 24 hrs by Western immunoassay relative to control; type: subcellular
# [12] = target: T1, Protein fem-1 homolog B/Histone deacetylase 1; assay: PROTAC activity at FEM1B/HDAC1 in human MDA-MB-231 cell lysate assessed as protein degradation at 10 uM measured after 24 hrs by Western immunoassay relative to control; type: subcellular
# [13] = target: T1, Protein fem-1 homolog B/Histone deacetylase 1; assay: PROTAC activity at FEM1B/HDAC1 in human U-87 MG cell lysate assessed as protein degradation at 10 uM measured after 24 hrs by Western immunoassay relative to control; type: subcellular
# MM1.S [14] = assay: Induction of cell cycle arrest in human MM1.S cells assessed as reduction in cells at […] phase at 10 uM measured after 48 hrs by propidium iodide based flow cytometry; type: functional
# MM1.S [15] = assay: Induction of cell cycle arrest in human MM1.s cells assessed as increase in cells at Sub-G1 phase at 10 uM measured after 48 hrs by propidium iodide based flow cytometry; type: functional
# MM1.S [16] = assay: Induction of apoptosis in human MM1.S cells assessed as increase in early apoptotic cells at 10 uM measured after 48 hrs by annexin V-FITC/PI staining based assay; type: functional, cell-based
# MM1.S [17] = assay: Induction of apoptosis in human MM1.S cells assessed as increase in late apoptotic cells at 10 uM measured after 48 hrs by annexin V-FITC/PI staining based assay; type: functional, cell-based
# [18] = target: Protein fem-1 homolog B/Lysine-specific histone demethylase 1A (Homo sapiens) (UniProt O60341+Q9UK73); assay: PROTAC activity at FEM1B/KDM1A (LSD1) in human MM1.S cell lysate assessed as protein degradation at 0.5 uM measured after 6 hrs by global quantitative proteomics analysis; type: subcellular
# [19] = target: Protein fem-1 homolog B/REST corepressor 1 (Homo sapiens) (UniProt Q9UKL0+Q9UK73); assay: PROTAC activity at FEM1B/RCOR1 in human MM1.S cell lysate assessed as protein degradation at 0.5 uM measured after 6 hrs by global quantitative proteomics analysis; type: subcellular
# [20] = target: Protein fem-1 homolog B/REST corepressor 3 (Homo sapiens) (UniProt Q9P2K3+Q9UK73); assay: PROTAC activity at FEM1B/RCOR3 in human MM1.S cell lysate assessed as protein degradation at 0.5 uM measured after 6 hrs by global quantitative proteomics analysis; type: subcellular
# [21] = target: Protein fem-1 homolog B//Paired amphipathic helix protein Sin3a (Homo sapiens) (UniProt Q9UK73+Q96ST3); assay: PROTAC activity at FEM1B/SIN3A in human MM1.S cell lysate assessed as protein degradation at 0.5 uM measured after 6 hrs by global quantitative proteomics analysis; type: subcellular
# [22] = target: Protein fem-1 homolog B/Nuclear receptor corepressor 1 (Homo sapiens) (UniProt O75376+Q9UK73); assay: PROTAC activity at FEM1B/NCOR1 in human MM1.S cell lysate assessed as protein degradation at 0.5 uM measured after 6 hrs by global quantitative proteomics analysis; type: subcellular
# [23] = target: Protein fem-1 homolog B//Mesoderm induction early response protein 1 (Homo sapiens) (UniProt Q9UK73+Q8N108); assay: PROTAC activity at FEM1B/MIER1 in human MM1.S cell lysate assessed as protein degradation at 0.5 uM measured after 6 hrs by global quantitative proteomics analysis; type: subcellular
# T1 sequence (Q13547 whole entry, looked up): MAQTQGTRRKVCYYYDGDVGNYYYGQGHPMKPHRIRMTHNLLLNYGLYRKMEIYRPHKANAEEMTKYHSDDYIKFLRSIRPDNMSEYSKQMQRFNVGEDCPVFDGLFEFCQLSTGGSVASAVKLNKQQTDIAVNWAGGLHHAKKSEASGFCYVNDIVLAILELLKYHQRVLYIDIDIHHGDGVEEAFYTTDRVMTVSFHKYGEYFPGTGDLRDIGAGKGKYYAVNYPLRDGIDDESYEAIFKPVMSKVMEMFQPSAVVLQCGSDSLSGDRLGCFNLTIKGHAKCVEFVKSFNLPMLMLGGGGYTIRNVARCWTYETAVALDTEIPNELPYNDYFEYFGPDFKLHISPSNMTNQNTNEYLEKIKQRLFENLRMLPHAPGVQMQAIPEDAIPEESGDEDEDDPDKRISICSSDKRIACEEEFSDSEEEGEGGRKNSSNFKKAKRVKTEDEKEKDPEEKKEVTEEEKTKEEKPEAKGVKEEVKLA
# T1 sequence (Q9UK73 whole entry, looked up): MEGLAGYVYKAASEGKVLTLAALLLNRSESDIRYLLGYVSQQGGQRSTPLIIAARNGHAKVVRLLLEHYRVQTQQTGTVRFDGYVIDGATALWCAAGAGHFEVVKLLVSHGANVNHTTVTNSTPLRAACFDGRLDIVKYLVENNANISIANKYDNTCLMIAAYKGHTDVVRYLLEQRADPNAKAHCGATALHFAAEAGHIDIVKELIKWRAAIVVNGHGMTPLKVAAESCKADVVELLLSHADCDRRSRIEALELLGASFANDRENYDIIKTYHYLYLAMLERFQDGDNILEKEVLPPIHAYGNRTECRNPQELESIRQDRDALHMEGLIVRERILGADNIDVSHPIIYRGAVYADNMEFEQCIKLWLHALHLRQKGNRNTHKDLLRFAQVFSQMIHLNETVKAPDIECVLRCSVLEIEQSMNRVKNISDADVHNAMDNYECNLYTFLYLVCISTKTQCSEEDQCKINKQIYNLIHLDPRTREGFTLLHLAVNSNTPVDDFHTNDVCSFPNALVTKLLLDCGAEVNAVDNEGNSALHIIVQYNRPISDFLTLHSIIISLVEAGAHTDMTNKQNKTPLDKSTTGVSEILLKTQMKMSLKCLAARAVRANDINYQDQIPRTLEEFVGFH
# Chain of Protein fem-1 homolog B/REST corepressor 1 (Homo sapiens) (Q9UK73 whole entry, looked up): as above
# Chain of Protein fem-1 homolog B/REST corepressor 1 (Homo sapiens) (Q9UKL0 whole entry, looked up): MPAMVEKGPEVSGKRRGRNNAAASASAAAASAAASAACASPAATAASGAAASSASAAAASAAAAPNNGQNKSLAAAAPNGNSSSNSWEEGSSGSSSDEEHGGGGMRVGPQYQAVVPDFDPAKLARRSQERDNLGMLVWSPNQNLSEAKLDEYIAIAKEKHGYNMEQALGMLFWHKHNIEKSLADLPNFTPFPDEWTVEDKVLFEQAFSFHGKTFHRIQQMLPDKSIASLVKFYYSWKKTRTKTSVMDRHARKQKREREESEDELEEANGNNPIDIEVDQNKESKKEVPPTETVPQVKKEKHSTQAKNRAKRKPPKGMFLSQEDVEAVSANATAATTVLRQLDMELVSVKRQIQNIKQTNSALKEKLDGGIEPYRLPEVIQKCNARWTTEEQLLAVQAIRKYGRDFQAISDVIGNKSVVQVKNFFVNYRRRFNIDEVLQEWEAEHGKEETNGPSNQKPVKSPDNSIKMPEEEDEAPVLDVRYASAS
# Chain of Protein fem-1 homolog B/Lysine-specific histone demethylase 1A (Homo sapiens) (Q9UK73 whole entry, looked up, other chains not shown): as the sequence (Q9UK73 whole entry, looked up) above
# Chain of Protein fem-1 homolog B/REST corepressor 3 (Homo sapiens) (Q9UK73 whole entry, looked up, other chains not shown): as the sequence (Q9UK73 whole entry, looked up) above
# Chain of Protein fem-1 homolog B/Histone deacetylase 8 (Homo sapiens) (Q9BY41 whole entry, looked up): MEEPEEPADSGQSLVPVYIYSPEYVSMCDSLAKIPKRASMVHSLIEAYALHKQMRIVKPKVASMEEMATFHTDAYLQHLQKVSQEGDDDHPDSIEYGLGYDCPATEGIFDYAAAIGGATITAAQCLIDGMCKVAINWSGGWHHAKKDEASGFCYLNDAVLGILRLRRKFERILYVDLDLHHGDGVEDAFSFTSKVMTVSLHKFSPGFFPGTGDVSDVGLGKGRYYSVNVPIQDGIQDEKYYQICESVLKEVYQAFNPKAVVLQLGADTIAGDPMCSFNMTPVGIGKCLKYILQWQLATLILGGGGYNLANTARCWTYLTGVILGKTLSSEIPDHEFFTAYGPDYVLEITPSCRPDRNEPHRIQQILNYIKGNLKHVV
# Chain of Protein fem-1 homolog B/Histone deacetylase 8 (Homo sapiens) (Q9UK73 whole entry, looked up): as the sequence (Q9UK73 whole entry, looked up) above
compound,measurement,setting,value
N#CCCN(C(=O)CCl)c1ccc2c(c1)OCCN2CC(=O)NCC(=O)Nc1ccc(C(=O)NCCCCCCC(=O)NO)cc1,Activity,[1],62.3%
same,Emax,[2],85.2%
same,Activity,[3],Active
same,Activity,[4],Active
same,Activity,[5],Active
same,Activity,[6],inactive
same,Activity,[7],inactive
same,Activity,[8],inactive
same,Activity,[9],inactive
same,Activity,[10],inactive
same,Activity,[11],87%
same,Activity,[12],53%
same,Activity,[13],75%
same,Activity,MM1.S [14],Active
same,Activity,MM1.S [15],Active
same,Activity,MM1.S [16],Active
same,Activity,MM1.S [17],Active
same,Activity,[18],Active
same,Activity,[19],Active
same,Activity,[20],Active
same,Activity,[21],Active
same,Activity,[22],Active
same,Activity,[23],Active
